Each structure is given as a SMILES string. “And” between values parts separate entries of the source, which are not always exact repeats. Identical values can stand only once.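 Following 48 hours of exposure in 96-well plates, responses at five concentrations were used to interpolate endpoints linearly. At the GI50, growth is halved. TGI is the concentration that stops growth completely.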

In the first assay the test system is RXF-631 renal. The experiment in a line: NCI anticancer screen, dose series, 48 h.
`Cc1cc(N(CCC#N)CCC#N)ccc1N=Nc1ccc(S(N)(=O)=O)cc1` yielded a TGI above 100 µM. `O=C(CCc1nc(=S)[nH][nH]1)Nc1cc(Cl)c(Cl)cc1Cl`: the TGI was above 100 µM.

Compound `Nc1ccccc1S(=O)(=O)N(CC(=O)O)c1ccccc1` displayed a TGI above 100 µM.

`O=C(O)CCC(NC(=O)c1ccc(Nc2nc3ccccc3nc2-c2cccs2)cc1)C(=O)O` (stereo unspecified): the TGI was above 100 µM. The compound `COc1cc2ccnc([C@@H](OC(=O)c3ccccc3)c3ccc(OC)c(OC)c3OC)c2cc1OC` gave a TGI above 100 µM. On the same count and under the same terms, the same measure for `O=C(O)CCNCCCNCCC(=O)O`: above 100 µM. `CCCCCCCCCCCCCC(=O)OC(/C=C/C(C)C)C(O)C(O)C(OC)C(=O)NC1CCCCN(C)C1=O` (stereo unspecified): the GI50 is above 49 µM; the TGI is 7.52 µM and > 49 µM. The compound `COC(=O)c1ccccc1NC(=O)C(=O)Cc1nc2c3c(ccc2[nH]c1=O)C(=O)c1ccccc1C3=O` yielded a TGI above 100 µM. `O=C(Nc1nc2ccc([N+](=O)[O-])cc2s1)C(=O)C(C1OC(=O)c2ccccc21)[N+](=O)[O-]` (stereo unspecified) showed a TGI above 100 µM. `COc1cc2cc(OC)c3cc4c(cc3c2c(OC)c1OC)OCO4` displayed a TGI above 100 µM.

The subject of a further assay is DMS 114 small cell lung. The experiment in a line: NCI anticancer screen, dose series, 48 h.
In turn, `Cc1cnc(NCCCN(C)C)c2c1[nH]c1ccc3cc(O)ccc3c12` showed a TGI of 0.993 µM. On the same count and under the same terms, to `Cc1c(C(=O)CC(=O)C(=O)Nc2ccccc2C(F)(F)F)[n+](=O)c2ccccc2n1[O-]` belongs 25.2 µM; to `Cc1cc(N(CCC#N)CCC#N)ccc1N=Nc1ccc(S(N)(=O)=O)cc1`, above 100 µM; to `Cc1nc2c(ccc3ncccc32)[nH]1`, above 100 µM.

In the case of `O=C(CCc1nc(=S)[nH][nH]1)Nc1cc(Cl)c(Cl)cc1Cl`, the TGI is above 100 µM. Compound `CN(C)C(=S)N=C(Nc1ccccc1)Nc1ccccc1` returned a TGI above 100 µM.

In turn, `COc1ccccc1N1C(=O)C2c3[nH]c4ccccc4c3C3CCC(C(C)(C)C)CC3C2C1=O` (stereo unspecified) yielded a TGI above 100 µM. With `Cc1cc(NS(=O)(=O)c2ccc(Nc3c4ccccc4nc4c(C(=O)N5CCN(CCOS(C)(=O)=O)CC5)cccc34)cc2)no1`, the TGI was above 100 µM.

With `O=C(O)CCC(NC(=O)c1ccc(Nc2nc3ccccc3nc2-c2cccs2)cc1)C(=O)O` (stereo unspecified), the TGI was above 100 µM. The compound `COc1cc2ccnc([C@@H](OC(=O)c3ccccc3)c3ccc(OC)c(OC)c3OC)c2cc1OC` gave a TGI above 100 µM. Same read-out and setting: to `O=C(Nc1ccccc1)c1c(O)[nH]c(=S)[nH]c1=O` belongs 69 µM. `CCn1c(C)nn2c(=O)c3ccccc3nc2c1=O` registered a TGI above 100 µM.

As to `COC(=O)/C(C#N)=C1\NC(=O)c2ccccc21`, the TGI is above 100 µM. `O=C(O)CCNCCCNCCC(=O)O` had a TGI above 100 µM.

As for `NC1=NCCC1(c1ccccc1)c1ccccn1` (stereo unspecified), the TGI was above 100 µM. Still for that read-out and setting: the same measure for `CCCCCCCCCCCC(=O)OCCOCCOCCOCCOCCOCc1ccccc1`: above 100 µM. As for `CCCCCCCCCCCCCC(=O)OC(/C=C/C(C)C)C(O)C(O)C(OC)C(=O)NC1CCCCN(C)C1=O` (stereo unspecified), the GI50 was above 49 µM; the TGI is 5.44 µM and > 49 µM.

On to `CCOC(=O)CCC1(C(=O)OCC)CCCCC1=O` (stereo unspecified), for which the TGI was above 100 µM.

With `COC(=O)c1ccccc1NC(=O)C(=O)Cc1nc2c3c(ccc2[nH]c1=O)C(=O)c1ccccc1C3=O`, the TGI is above 100 µM. The compound `CCOC(=O)C(C)(C)Oc1ccc2c(-c3ccccc3)cc(=O)oc2c1` came in with a TGI of 64.1 µM. Compound `CCCC1C(=O)CCc2c(OC)ccc(OC)c21` (stereo unspecified) yielded a TGI above 100 µM. In turn, `COc1cc2cc(OC)c3cc4c(cc3c2c(OC)c1OC)OCO4` displayed a TGI above 100 µM. As to `CCC[CH2][Sn]([CH2]CCC)([S]c1cccc2cccnc12)[S]c1cccc2cccnc12`, the GI50 is 0.129 µM and the TGI was determined as 0.319 µM. Turning to `COC(=O)C1(C(C)C)CCc2c(OC)ccc(OC)c2C1=O` (stereo unspecified), the TGI is above 100 µM.

The subject of the next assay is XF 498 CNS. The experiment in a line: NCI anticancer screen, dose series, 48 h.
Compound `Cc1cnc(NCCCN(C)C)c2c1[nH]c1ccc3cc(O)ccc3c12` showed a TGI of 0.806 µM. Compound `Cc1c(C(=O)CC(=O)C(=O)Nc2ccccc2C(F)(F)F)[n+](=O)c2ccccc2n1[O-]` gave a TGI of 42 µM. Still for that read-out and setting: to `Cc1cc(N(CCC#N)CCC#N)ccc1N=Nc1ccc(S(N)(=O)=O)cc1` belongs above 100 µM; to `C1=C2/CC[C@H](Sc3ccccc3)C2C2(CCCCC/1)OCCO2` (stereo partly specified), 58.6 µM.

For `O=C(CCc1nc(=S)[nH][nH]1)Nc1cc(Cl)c(Cl)cc1Cl`, the TGI is above 100 µM. Compound `Nc1ccccc1S(=O)(=O)N(CC(=O)O)c1ccccc1` gave a TGI above 100 µM. `CC1(C)C(=O)/C=C\C(=O)C(C)(C)C2=CC=C(O2)C(C)(C)C(=O)/C=C\C(=O)C(C)(C)C2=CC=C1O2`: the TGI was above 100 µM. Compound `COc1ccccc1N1C(=O)C2c3[nH]c4ccccc4c3C3CCC(C(C)(C)C)CC3C2C1=O` (stereo unspecified) returned a TGI above 100 µM. `Cc1cc(NS(=O)(=O)c2ccc(Nc3c4ccccc4nc4c(C(=O)N5CCN(CCOS(C)(=O)=O)CC5)cccc34)cc2)no1` displayed a TGI above 100 µM. Same read-out and setting: to `O=C(O)CCC(NC(=O)c1ccc(Nc2nc3ccccc3nc2-c2cccs2)cc1)C(=O)O` (stereo unspecified) belongs above 100 µM. On to `O=C(Nc1ccccc1)c1c(O)[nH]c(=S)[nH]c1=O`, for which the GI50 was 8.86 µM and 61.7 µM; the TGI was 19.5 µM and 155 µM. In turn, `CCn1c(C)nn2c(=O)c3ccccc3nc2c1=O` came in with a TGI above 100 µM.

Take `O=C(O)CCNCCCNCCC(=O)O`: the TGI is above 100 µM.

On to `NC1=NCCC1(c1ccccc1)c1ccccn1` (stereo unspecified), for which the TGI was above 100 µM. `O=C1/C(=C/c2ccc(O)c(O)c2)CCC/C1=C\c1ccc(O)c(O)c1`: the TGI was 9.93 µM.

Consider `CCOC(=O)CCC1(C(=O)OCC)CCCCC1=O` (stereo unspecified), for which the TGI was above 100 µM. `COC(=O)c1ccccc1NC(=O)C(=O)Cc1nc2c3c(ccc2[nH]c1=O)C(=O)c1ccccc1C3=O` displayed a TGI of 91.7 µM. In the case of `CCOC(=O)C(C)(C)Oc1ccc2c(-c3ccccc3)cc(=O)oc2c1`, the TGI amounted to 47.9 µM.

For the origin of these results see PubChem BioAssay (NCI).
